Source: article PMC10230504, “Versatile Chemo-Biocatalytic Cascade Driven by a Thermophilic and Irreversible C–C Bond-Forming α-Oxoamine Synthase” (ACS Sustainable Chemistry & Engineering, 2023)

Molecular target: T1, ThAOS (Thermus thermophilus, UniProt Q5SHZ8)
T1 construct: gene TTHA1582; recombinant, codon-optimized clone (GenScript), expressed in E. coli BL21 (DE3), purified
T1 sequence (Q5SHZ8 2-395): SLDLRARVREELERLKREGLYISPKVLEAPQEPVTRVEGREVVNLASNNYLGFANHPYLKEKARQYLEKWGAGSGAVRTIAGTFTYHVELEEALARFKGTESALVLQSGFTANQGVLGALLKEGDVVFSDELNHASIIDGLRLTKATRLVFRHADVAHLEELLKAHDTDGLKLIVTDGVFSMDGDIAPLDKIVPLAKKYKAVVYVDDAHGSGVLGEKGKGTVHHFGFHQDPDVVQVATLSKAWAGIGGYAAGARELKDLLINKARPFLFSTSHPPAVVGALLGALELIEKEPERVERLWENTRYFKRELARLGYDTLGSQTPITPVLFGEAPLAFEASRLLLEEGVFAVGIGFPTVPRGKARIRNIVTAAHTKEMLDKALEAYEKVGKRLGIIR
Assay: DTNB assay of CoASH release; product confirmed by mass spectrometry
Format: biochemical
Details: co-substrate acyl-CoA; 50 °C

With `NCC(=O)O` [Gly] the “DTNB assay of CoASH release; product confirmed by mass spectrometry” value was “ThAOS was active with AAs (S)-2-aminobutyric acid (L-Aba), L-Ala, Gly and L-Ser”.
